Assay results from US20260102501A1, “ANTI-CANCER NUCLEAR HORMONE RECEPTOR-TARGETING COMPOUNDS” (Nuvation Bio Inc., priority 2022, published 2026).
Positions count from the first letter of the chain named. Structures can show the parent of a compound that is named as a salt. Where two headings read alike, the source gives them in different places.

Key:
[1] = molecular target: T1, Progesterone PR-B receptors from human breast carcinoma T47D cells (Homo sapiens, UniProt P06401); assay: PR binding assay ([3H] Progesterone displacement)
T1 sequence (P06401 1-933): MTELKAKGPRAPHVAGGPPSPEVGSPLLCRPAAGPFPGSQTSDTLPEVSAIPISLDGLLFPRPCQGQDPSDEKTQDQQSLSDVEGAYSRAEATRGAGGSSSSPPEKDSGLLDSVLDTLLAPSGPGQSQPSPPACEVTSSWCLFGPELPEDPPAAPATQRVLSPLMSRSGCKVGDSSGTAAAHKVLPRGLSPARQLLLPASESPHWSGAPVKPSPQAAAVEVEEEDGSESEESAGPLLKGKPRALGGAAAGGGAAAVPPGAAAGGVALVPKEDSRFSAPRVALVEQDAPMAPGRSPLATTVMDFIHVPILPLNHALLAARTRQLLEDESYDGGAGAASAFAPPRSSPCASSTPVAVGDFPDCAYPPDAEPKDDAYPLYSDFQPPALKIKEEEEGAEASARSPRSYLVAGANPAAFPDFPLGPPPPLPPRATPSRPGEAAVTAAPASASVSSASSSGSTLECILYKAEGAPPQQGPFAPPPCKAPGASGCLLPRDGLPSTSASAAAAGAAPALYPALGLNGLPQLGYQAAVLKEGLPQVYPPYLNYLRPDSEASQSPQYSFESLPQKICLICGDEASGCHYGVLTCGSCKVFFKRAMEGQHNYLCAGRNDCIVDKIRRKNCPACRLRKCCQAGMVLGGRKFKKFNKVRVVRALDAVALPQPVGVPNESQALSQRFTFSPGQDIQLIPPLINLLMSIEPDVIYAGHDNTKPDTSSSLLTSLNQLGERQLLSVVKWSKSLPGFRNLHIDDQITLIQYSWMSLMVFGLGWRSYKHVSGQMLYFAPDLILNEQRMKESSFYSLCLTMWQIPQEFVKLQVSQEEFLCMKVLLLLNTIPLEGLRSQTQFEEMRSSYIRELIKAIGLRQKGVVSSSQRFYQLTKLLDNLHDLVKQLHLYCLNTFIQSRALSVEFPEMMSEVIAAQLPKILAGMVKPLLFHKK

[2] = molecular target: T2, full-length androgen receptor (HEK293 cells stably expressing) (Homo sapiens, UniProt P10275); assay: AR antagonism assay (luciferase reporter)
T2 sequence (P10275 1-920): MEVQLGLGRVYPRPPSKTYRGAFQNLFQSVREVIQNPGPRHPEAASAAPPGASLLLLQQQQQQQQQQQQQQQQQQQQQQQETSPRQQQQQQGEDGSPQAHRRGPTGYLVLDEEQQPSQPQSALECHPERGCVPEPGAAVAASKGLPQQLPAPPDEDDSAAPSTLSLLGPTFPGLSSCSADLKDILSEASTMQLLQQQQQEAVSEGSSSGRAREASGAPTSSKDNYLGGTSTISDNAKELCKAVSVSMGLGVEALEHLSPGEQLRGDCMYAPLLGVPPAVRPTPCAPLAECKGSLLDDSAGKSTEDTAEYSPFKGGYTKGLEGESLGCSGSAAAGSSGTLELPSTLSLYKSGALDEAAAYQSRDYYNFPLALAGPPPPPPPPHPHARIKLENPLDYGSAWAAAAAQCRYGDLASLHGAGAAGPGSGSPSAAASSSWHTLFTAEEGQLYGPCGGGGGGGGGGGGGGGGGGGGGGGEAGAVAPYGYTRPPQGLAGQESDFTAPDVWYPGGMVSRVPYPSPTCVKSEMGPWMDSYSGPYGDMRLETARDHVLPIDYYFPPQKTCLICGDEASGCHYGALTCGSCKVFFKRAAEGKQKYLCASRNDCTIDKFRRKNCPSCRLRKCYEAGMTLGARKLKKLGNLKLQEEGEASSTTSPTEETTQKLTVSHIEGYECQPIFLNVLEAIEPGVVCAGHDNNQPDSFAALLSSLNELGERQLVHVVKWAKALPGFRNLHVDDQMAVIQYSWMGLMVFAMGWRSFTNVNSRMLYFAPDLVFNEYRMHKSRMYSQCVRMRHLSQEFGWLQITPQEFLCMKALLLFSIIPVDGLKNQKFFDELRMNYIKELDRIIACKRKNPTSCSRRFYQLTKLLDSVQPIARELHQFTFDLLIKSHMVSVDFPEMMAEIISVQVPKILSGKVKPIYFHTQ

T47D cells = assay: Cell viability assay (CellTiterGlo); assay type: cell-based; details: Homo sapiens, 144 h
IEC6 cells = assay: Cell viability assay (CellTiterGlo); details: Rattus norvegicus, IEC-6, 144 h, read-out: IEC-6 (IC50, nM)
[3] = molecular target: T3, AR (cytosol from LnCaP cells) (Homo sapiens, UniProt P10275, T878A); assay: AR binding assay (3H-R1881 displacement)
T3 sequence (P10275 1-920 T878A): T2 sequence (P10275 1-920) with T878A
Experimental: The plate was then centrifuged at 3000 rpm for 30 minutes at 4° C.

[4] = molecular target: T4, ligand binding domain of the glucocorticoid receptor (HEK293 cells stably expressing) (Homo sapiens, UniProt P04150); assay: GR antagonism assay (luciferase reporter)
T4 sequence (P04150 524-758 limits assumed): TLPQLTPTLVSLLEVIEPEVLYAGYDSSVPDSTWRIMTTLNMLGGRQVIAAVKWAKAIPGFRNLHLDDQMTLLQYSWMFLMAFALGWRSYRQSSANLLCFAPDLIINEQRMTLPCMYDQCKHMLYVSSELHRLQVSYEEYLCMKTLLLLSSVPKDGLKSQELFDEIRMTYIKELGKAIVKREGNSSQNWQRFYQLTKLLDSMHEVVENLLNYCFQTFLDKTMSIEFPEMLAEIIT

LNCap cells = assay: Cell viability assay (CellTiterGlo); assay type: cell-based; details: Homo sapiens, 144 h
[5] = 6 days incubation, CellTiterGlo, read-out: T47D (IC50)
[6] = 6 days incubation, CellTiterGlo, read-out: LNCap (IC50)

**Q.** Which IC50 [1] does the source give for `CC[C@@]1(O)C(=O)OCc2c1cc1n(c2=O)Cc2cc3c(CN4CCN(C(=O)OCCCCN(C)c5ccc([C@H]6C[C@@]7(C)[C@@H](CC[C@]7(OC(C)=O)C(C)=O)[C@@H]7CCC8=CC(=O)CCC8=C76)cc5)CC4)c(O)ccc3nc2-1` [Compound 41, 4-((4-((8S,11R,13S,14S,17R)-17-acetoxy-17-acetyl-13-methyl-3-oxo-2,3,6,7,8,11,12,13,14,15,16,17-dodecahydro-1H-cyclopenta[a]phenanthren-11-yl)phenyl)(methyl)amino)butyl 4-(((S)-4-ethyl-4,9-dihydroxy-3,14-dioxo-3,4,12,14-tetrahydro-1H-pyrano[3′,4′:6,7]indolizino[1,2-b]quinolin-10-yl)methyl)piperazine-1-carboxylate] here?
**A.** < 10 nM

**Q.** And the IC50 [2]?
**A.** 101 to 1000 nM

**Q.** And the IC50 (T47D cells; [5])?
**A.** 10 to 100 nM

**Q.** And the IC50 (IEC6 cells)?
**A.** 101 to 1000 nM

**Q.** And the IC50 [3]?
**A.** 10 to 100 nM

**Q.** And the IC50 [4]?
**A.** < 10 nM

**Q.** And the IC50 (LNCap cells; [6])?
**A.** 10 to 100 nM

**Q.** `CC[C@@]1(O)C(=O)OCc2c1cc1n(c2=O)Cc2c-1nc1cc(F)c(C)c3c1c2[C@@H](NC(=O)CN1CCN(CCCCCCN(C)c2ccc([C@H]4C[C@@]5(C)[C@@H](CC[C@]5(OC(C)=O)C(C)=O)[C@@H]5CCC6=CC(=O)CCC6=C54)cc2)CC1)CC3` [Compound 37, (8S,11R,13S,14S,17R)-17-acetyl-11-(4-((6-(4-(2-(((1S,9S)-9-ethyl-5-fluoro-9-hydroxy-4-methyl-10,13-dioxo-2,3,9,10,13,15-hexahydro-1H,12H-benzo[de]pyrano[3′,4′:6,7]indolizino[1,2-b]quinolin-1-yl)amino)-2-oxoethyl)piperazin-1-yl)hexyl)(methyl)amino)phenyl)-13-methyl-3-oxo-2,3,6,7,8,11,12,13,14,15,16,17-dodecahydro-1H-cyclopenta[a]phenanthren-17-yl acetate] was tested. Which IC50 [1] did it give?
**A.** < 10 nM

**Q.** And the IC50 [2]?
**A.** 101 to 1000 nM

**Q.** And the IC50 (T47D cells; [5])?
**A.** 10 to 100 nM

**Q.** What about the IC50 (IEC6 cells) of the same compound?
**A.** 101 to 1000 nM

**Q.** What about the IC50 [3] of the same compound?
**A.** < 10 nM

**Q.** And the IC50 [4]?
**A.** 10 to 100 nM

**Q.** And the IC50 (LNCap cells; [6])?
**A.** 101 to 1000 nM

**Q.** With `CC[C@@]1(OC(=O)N2CCN(CCCCCCN(C)c3ccc([C@H]4C[C@@]5(C)[C@@H](CC[C@]5(OC(C)=O)C(C)=O)[C@@H]5CCC6=CC(=O)CCC6=C54)cc3)CC2)C(=O)OCc2c1cc1n(c2=O)Cc2cc3cc(OC)ccc3nc2-1` [Compound 24, (S)-4-Ethyl-9-methoxy-3,14-dioxo-3,4,12,14-tetrahydro-1H-pyrano[3′,4′:6,7]indolizino[1,2-b]quinolin-4-yl 4-(6-((4-((8S,11R,13S,14S,17R)-17-acetoxy-17-acetyl-13-methyl-3-oxo-2,3,6,7,8,11,12,13,14,15,16,17-dodecahydro-1H-cyclopenta[a]phenanthren-11-yl)phenyl)(methyl)amino)hexyl)piperazine-1-carboxylate Formate] as the compound, how does the IC50 [1] read?
**A.** < 10 nM

**Q.** And the IC50 (T47D cells; read-out: T47D (IC50))?
**A.** 101 to 1000 nM

**Q.** What about the IC50 (LNCap cells; read-out: LNCap (IC50)) of the same compound?
**A.** 101 to 1000 nM

**Q.** How did the IC50 [1] turn out when `CC[C@@]1(O)C(=O)OCc2c1cc1n(c2=O)Cc2cc3c(CN(C)C)c(OC(=O)N4C[C@H](C)N(C(=O)[C@H](CCCNC(N)=O)NC(=O)[C@@H](NCCCCCCN(C)c5ccc([C@H]6C[C@@]7(C)[C@@H](CC[C@]7(OC(C)=O)C(C)=O)[C@@H]7CCC8=CC(=O)CCC8=C76)cc5)C(C)C)C[C@H]4C)ccc3nc2-1` [Compound 35] was run?
**A.** < 10 nM

**Q.** And the IC50 [2]?
**A.** > 1000 nM

**Q.** And the IC50 (T47D cells; read-out: T47D (IC50, nM))?
**A.** 101 to 1000 nM

**Q.** What about the IC50 (IEC6 cells) of the same compound?
**A.** > 1000 nM

**Q.** What about the IC50 [3] of the same compound?
**A.** 10 to 100 nM

**Q.** What about the IC50 [4] of the same compound?
**A.** 10 to 100 nM

**Q.** What about the IC50 (LNCap cells; read-out: LNCap (IC50, nM)) of the same compound?
**A.** > 1000 nM

**Q.** `CC[C@@]1(O)C(=O)OCc2c1cc1n(c2=O)Cc2cc3c(CN4CCN(CCCCCCN(C)c5ccc([C@H]6C[C@@]7(C)[C@@H](CC[C@]7(OC(C)=O)C(C)=O)[C@@H]7CCC8=CC(=O)CCC8=C76)cc5)CC4)cccc3nc2-1` [Compound 38, (8S,11R,13S,14S,17R)-17-acetyl-11-(4-((6-(4-(((S)-4-ethyl-4-hydroxy-3,14-dioxo-3,4,12,14-tetrahydro-1H-pyrano[3′,4′:6,7]indolizino[1,2-b]quinolin-10-yl)methyl)piperazin-1-yl)hexyl)(methyl)amino)phenyl)-13-methyl-3-oxo-2,3,6,7,8,11,12,13,14,15,16,17-dodecahydro-1H-cyclopenta[a]phenanthren-17-yl acetate] was tested. Which IC50 [1] did it give?
**A.** < 10 nM

**Q.** And the IC50 [2]?
**A.** > 1000 nM

**Q.** What about the IC50 (T47D cells; [5]) of the same compound?
**A.** 101 to 1000 nM

**Q.** What about the IC50 (IEC6 cells) of the same compound?
**A.** > 1000 nM

**Q.** And the IC50 [3]?
**A.** < 10 nM

**Q.** And the IC50 [4]?
**A.** 10 to 100 nM

**Q.** And the IC50 (LNCap cells; [6])?
**A.** 101 to 1000 nM
